Results on 1 compound are retold here after patent US20230406851A1, “IMIDAZOPYRIDINE COMPOUNDS AND USES THEREOF” (priority 2022, published 2023).

In assay [1] the test system is rat FCA 96 hr paw model of inflammatory pain (mechanical hyperalgesia). The experiment in a line: Mechanical hyperalgesia (Ugo Basile analgesy meter) in rat FCA 96 hr paw model of inflammatory pain. Type of assay: in vivo. The settings on record: oral dosing 0.3-1-3-10-20 μmol/kg, 96 h after FCA. The method, then:
(§1) One of the compounds of the present invention was evaluated in an in vivo model of inflammatory pain.
(§2) Male Sprague-Dawley rats (Charles River, St-Constant, Qc, CAN) weighing 200-225 g were utilized for the animal experiment studies. The animals were group-housed in polycarbonate, ventilated cages (filter top) in a controlled environment room (12-h light/dark cycle, 20.5-23.5° C., relative humidity: 40-70%) with food (14% Protein Rodent Maintenance Diet, Harlan Teklad, Madisson, WI, USA) and water ad libidum.
(§3) Inflammation was induced by injection of a single 40 μl Freund's complete adjuvant (FCA) intra-plantar injection into the rat's left hindpaw. All experiments were conducted 96 h after FCA administration. […]
Mechanical hyperalgesia was assessed using the Ugo Basile analgesy meter (Ugo Basile, Comerio, Italy). […] The pressure required to elicit paw withdrawal was determined. […] Paw withdrawal thresholds were calculated as the mean of the two values. […]
(§4) Satellite animals were used to monitor the free plasma concentration of example 15 at the doses and time points used in the nociceptive tests. Free plasma EC50 values in behavioral studies were determined from 4-point concentration-response curves using non-linear regression and a sigmoidal variable slope logistic model (Prism 4.03, GraphPad Software Inc., USA).

For assay [2], the system named is rat FCA 96 hr paw model of inflammatory pain (heat hyperalgesia). The experiment in a line: Heat hyperalgesia (Plantar Test) in rat FCA 96 hr paw model of inflammatory pain. It counts as in vivo. The conditions noted are these: oral dosing 0.3-1-3-10-20 μmol/kg, 96 h after FCA. The method, then: as §1, §2, §3
Heat hyperalgesia (Plantar Test) was assessed using a Paw Thermal Stimulator to apply a controlled heat to the plantar surface of the affected paw. […] The heat source and timer were then turned on simultaneously; when the animal withdrew the hind paw the number of seconds was recorded. […]
as §4

On to `CNC(=O)c1cc(F)c(-c2nc3cc(C)ccn3c2C[C@H]2CN(C(=O)OC)CCO2)c(F)c1` [Example 15, (S)-methyl-2-((2-(2,6-difluoro-4-(methylcarbamoyl)phenyl)-7-methylimidazo[1,2-a]pyridin-3-yl)methyl)morpholine-4-carboxylate], for which the “reversal of mechanical hyperalgesia” value in assay [1] is on record as “free plasma concentration dependent reversal”. Further, the EC50 was 87 nM in assay [1] (free plasma concentration, read-out: potency (EC50 free plasma concentration) in reversing mechanical hyperalgesia) and 18 nM in assay [2] (free plasma concentration, read-out: potency (EC50 free plasma concentration) in reversing heat hyperalgesia). Also, the “reversal of heat hyperalgesia” value in assay [2] is “free plasma concentration dependent reversal”.
